GI50 and TGI data for nine molecules are collected here from PubChem BioAssay (NCI).

Holding throughout (test): NCI-60 cell line screen, 48 h
For assay [1], the system named is SK-MEL-2 melanoma.
Assay [2] concerns U251 CNS.
Assay [3] deals with RPMI-8226 leukemia.
Assay [4] has as its system K-562 leukemia.
In assay [5] the test system is MDA-MB-231 breast.
Assay [6] relates to OVCAR-8 ovarian.
For assay [7], the system named is HCT-15 colon.
Assay [8] has as its system OVCAR-3 ovarian.
Assay [9] concerns SF-295 CNS.
Assay [10] deals with RXF 393 renal.

Values joined by “and” are separate entries in the source; they are usually repeats but may differ in a detail not shown here. Equal values may be shown once.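 Results reflect a 48-hour exposure of cells in 96-well plates to compound at five concentrations. GI50 marks 50% less growth. TGI: concentration producing complete growth inhibition.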

For the molecule `Cc1ccc(NC2=C(Sc3ccc(Cl)cc3)C(=O)N(Cc3ccccc3)C2=O)cc1Cl`, the GI50 in assay [1] was 13.2 µM; in [2] it was 3.24 µM; in assay [3], 12.7 µM; in [4], 3.66 µM; in assay [5] it was 3.84 µM; in [6], 3.98 µM. Further, the GI50 is 10.6 µM in [7], 2.09 µM in assay [8] and 5.86 µM in assay [9]. Moreover, the TGI in assay [1] is 33.3 µM; in [2], 14 µM; in [3], 40.8 µM; in assay [4], 19.7 µM; in [5] it was 14.7 µM; in assay [6] it was 34.8 µM. Further, the TGI in assay [7] is over 100 µM; in [8], 5.31 µM; in assay [9], over 100 µM.
On to `Cn1c2ccc([N+](=O)[O-])cc2c(=O)c2c(O)cc(O)cc21`, for which the TGI in [2] is 37.3 µM; in assay [3], over 100 µM; in [4], over 100 µM; in [5], over 100 µM; in assay [6], 25.9 µM; in assay [7], over 100 µM. The TGI in [8] is over 100 µM; in assay [9], 33.8 µM; in assay [10], 52 µM.
With `CCOC(=O)[C@@H](C)C[C@H](Cc1ccccc1)NC(=O)c1csc([C@@H](C[C@H](C(C)C)N(C)C(=O)[C@H](CCC(C)C)NC(=O)[C@H]2CCCCN2C)OC(C)=O)n1`, the GI50 in [1] is under 0.00333 µM; in assay [2] it was 0.00758 µM; in assay [3] it was under 0.00333 µM; in assay [4], under 0.00333 µM; in assay [5], 0.00821 µM; in assay [6] it was 0.0125 µM. In addition, the GI50 is 0.0138 µM in assay [7], under 0.00333 µM in [8] and 0.00575 µM in [9]. Besides, the TGI in [1] is 6.65 µM; in assay [2], 5.92 µM; in [3], 3.83 µM; in [4], 4.45 µM; in [5], 0.398 µM; in assay [6] it was 10.1 µM. Moreover, the TGI was determined as 4.19 µM in assay [7], 0.0335 µM in assay [8] and 3.68 µM in assay [9].
`Cl.Fc1c[c-]c(-c2ccccn2)c(F)c1.[Pt].c1ccc([PH+](CC[PH+](c2ccccc2)c2ccccc2)c2ccccc2)cc1`: the GI50 in [1] is 0.233 µM; in [2], 0.0319 µM; in [3], 0.0341 µM; in assay [4], 0.0369 µM; in assay [5], 0.178 µM; in assay [8], 0.0827 µM. Besides, the values for the GI50 in assay [9] and in assay [10] were 0.0474 µM and 0.214 µM, respectively. The TGI in [1] was found to be 0.756 µM; in assay [2], 1.13 µM; in [3], 0.249 µM; in assay [5], 0.496 µM; in assay [8] it was 0.414 µM; in assay [9] it was 0.328 µM. The molecule also yielded a TGI in assay [10] of 0.997 µM.
`CCOC(=O)C(Cc1c[nH]c2cc([N+](=O)[O-])ccc12)(NC(C)=O)C(=O)OCC`: the GI50 in [1] is 36 µM and 168 µM; in [2], 104 µM; in [3] it was 45 µM; in assay [5] it was 167 µM; in assay [6] it was 30.3 µM and 104 µM; in assay [7], over 1000 µM. The GI50 in assay [8] was over 1000 µM; in assay [9] it was 57.9 µM and 56.9 µM; in assay [10], 58.6 µM. Besides, the TGI in assay [1] is 97.9 µM and 401 µM; in [2], over 693 µM; in [5] it was over 715 µM; in [6] it was over 1000 µM; in [7] it was over 1000 µM; in assay [8], over 1000 µM. Moreover, the TGI in assay [9] is over 478 µM; in [10], 133 µM.
In the case of `COC1=C(C(=O)OC(C)(C)C)[C@]2(C)C(C(=O)OC(C)(C)C)C(OC)=C(C(=O)OC(C)(C)C)[C@]2(C)C1C(=O)OC(C)(C)C` (stereo not given in full), the TGI in [1], in assay [2], in assay [3], in assay [4], in assay [6] and in assay [7] was over 100 µM each time. Also, the TGI in assay [8], in [9] and in assay [10] was over 100 µM each time.
Turning to `Cc1cc(-c2nc3ccc(O)cc3s2)ccc1N`, the GI50 in [1] is over 100 µM; in [2], 31.3 µM; in assay [4], 36.4 µM; in [5] it was 44.7 µM; in assay [6], over 100 µM; in [7], over 100 µM. Moreover, the GI50 is 39.3 µM in [8], 31.5 µM in assay [9] and 30.5 µM in [10]. Further, the TGI in assay [1], in assay [2], in assay [4], in assay [5], in [6] and in assay [7] was over 100 µM in each case. The TGI in assay [8], in assay [9] and in assay [10] was over 100 µM in each case.
As for `O=[N+]([O-])c1cc(Br)cc2c1[nH]c1ccc(Br)cc12`, the GI50 in [1] was 6.22 µM; in assay [2] it was 14.8 µM; in assay [3] it was 25.4 µM; in [5], 2.71 µM; in assay [6] it was 11.4 µM; in [7], 28 µM. Moreover, the GI50 in assay [8] was 2.56 µM; in assay [9], 2.78 µM; in assay [10], 5.04 µM. The TGI in [1] is 41.5 µM; in assay [2], 93.2 µM; in assay [3], over 100 µM; in assay [5], over 100 µM; in [6], over 100 µM; in [7], over 100 µM. The TGI in [8] was 7.42 µM; in [9], 9.35 µM; in assay [10], 20.9 µM.
On to `Nc1ncc(-c2ccc(C(F)(F)F)cc2)c(NC2CCCCCC2)n1`, for which the GI50 is 20.8 µM in assay [2]; 8.91 µM in [3]; 21 µM in assay [4]; 21.3 µM in assay [5]; 32.5 µM in assay [6]; 38.8 µM in [7]. The GI50 is 35.9 µM in assay [8], 24.1 µM in assay [9] and 16.1 µM in [10]. For the same molecule, the TGI in assay [2] was 88.9 µM; in assay [3], 41.1 µM; in assay [4] it was over 100 µM; in assay [5], 76.9 µM; in assay [6] it was over 100 µM; in assay [7] it was over 100 µM. In addition, the results for the TGI in assay [8], in assay [9] and in assay [10] were over 100 µM, over 100 µM and 88 µM, respectively.
